# Data published in paper PMC10390107, “The 4-(dimethylaminoalkyl)piperazine inhibitors of α-glucosidase: allosteric enzyme inhibition and identification of interacting chemical groups” (Turkish Journal of Chemistry, 2022).
# Entries after “also recorded” stand apart in the source; their conditions may differ. Read-outs that look alike come from different tables or passages of the source.
# Target: T1, α-glucosidase (EC 3.2.1.20) from Saccharomyces cerevisiae (Saccharomyces cerevisiae, UniProt P53341)
# T1 construct: purchased Sigma Chemical Co., St. Louis, USA
# T1 sequence (P53341 whole entry): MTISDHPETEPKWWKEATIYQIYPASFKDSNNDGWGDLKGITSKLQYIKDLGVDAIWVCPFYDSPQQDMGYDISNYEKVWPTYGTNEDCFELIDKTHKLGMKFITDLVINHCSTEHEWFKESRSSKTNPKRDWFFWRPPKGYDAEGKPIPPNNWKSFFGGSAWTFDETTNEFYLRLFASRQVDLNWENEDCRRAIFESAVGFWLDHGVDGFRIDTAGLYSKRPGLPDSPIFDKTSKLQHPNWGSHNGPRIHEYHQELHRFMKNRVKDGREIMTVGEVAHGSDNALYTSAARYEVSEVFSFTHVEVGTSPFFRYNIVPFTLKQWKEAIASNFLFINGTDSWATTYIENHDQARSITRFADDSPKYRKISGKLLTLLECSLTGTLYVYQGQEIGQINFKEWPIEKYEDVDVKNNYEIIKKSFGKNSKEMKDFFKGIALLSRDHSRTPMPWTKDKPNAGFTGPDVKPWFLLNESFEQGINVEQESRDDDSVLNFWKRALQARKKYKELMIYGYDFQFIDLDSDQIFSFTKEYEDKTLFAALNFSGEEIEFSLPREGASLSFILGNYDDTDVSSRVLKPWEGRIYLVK
# Assay: biochemical
# Type: biochemical
# Conditions: mean of quadruplet experiments ± SEM, from Dixon plots, pH 6.8, 37 °C
# Method: All in vitro α-glucosidase inhibition assays were performed in a 96-well microplate format. The α-glucosidase inhibition assay reported elsewhere was customized to suit the experimental needs of the current work. The assay mixture contained 50 mM sodium phosphate buffer (pH 6.8), 20 mU of α-glucosidase (EC 3.2.1.20) from Saccharomyces cerevisiae (Sigma Chemical Co., St. Louis, USA), and 1.0 mM of p-nitrophenyl-α-D-glucopyranoside (PNP-G) substrate. All target compounds were dissolved in DMSO with the assay mixture containing DMSO at a final concentration of 3%. […] The reaction was continuously monitored at 400 nm in SpectraMax Plus 384® microplate reader (Molecular Devices, CA, USA). […] All assays were performed as four individual experiments out of which the values of mean and standard error of mean (SEM) were calculated.
# The enzyme kinetics assay procedure was essentially the same as mentioned above except that it was specifically designed for the kinetic work. […] The type of inhibition was calculated from the Lineweaver-Burk plots which was further confirmed by the Dixon plot using Grafit 7.0.3 software (Erithacus Software Ltd., Staines, UK). The Ki values were also calculated from their respective Dixon plots. All kinetic experiments were conducted in quadruplicate from which mean Ki values and the SEM were calculated.
SMILES,Ki (read-out: Ki) [µM],Ki
CN(C)CCCN1CCN(C(=S)SCCCC(=O)c2ccc(Cl)cc2)CC1 [PC1],5.75 ± 0.2,–
CN(C)CCCN1CCN(C(=S)SCCC(=O)c2ccccc2)CC1 [PC9],–,no inhibitory activity; also recorded: Inactive
